Converted amounts (≈) assume the structure as drawn. The source made the active and inactive calls. The rule behind the calls is not given here.
Tests used:
[1] = AUClast in female CD-1 mouse at 3 mg/kg, iv administered as 5% v/v NMP, 5% v/v solutol HS-15 and 70% v/v normal saline formulation and measured after 24 hrs; assay type: ADME, organism-based; conditions: in vivo
[2] = AUClast in female CD-1 mouse at 10 mg/kg, po administered as 5% v/v NMP, 5% v/v solutol HS-15 and 70% v/v normal saline formulation and measured after 24 hrs; assay type: ADME, organism-based; conditions: in vivo
[3] = Volume of distribution at steady state in female CD-1 mouse at 3 mg/kg, iv administered as 5% v/v NMP, 5% v/v solutol HS-15 and 70% v/v normal saline formulation and measured after 24 hrs; assay type: ADME, organism-based; conditions: in vivo
[4] = Cmax in female CD-1 mouse at 3 mg/kg, iv administered as 5% v/v NMP, 5% v/v solutol HS-15 and 70% v/v normal saline formulation and measured after 24 hrs; assay type: ADME, organism-based; conditions: in vivo
[5] = Stability in mouse plasma assessed as half-life at 10 uM measured upto 48 hrs by UPLC-MS/MS analysis; assay type: ADME, cell-free; conditions: 48 h, 10 µM
[6] = Solubility of compound at pH 7.4 incubated for 18 hrs by UV-spectra analysis; assay type: physicochemical; conditions: buffer; for solubility: pH 7.4, 18 h
[7] = Half-life in female CD-1 mouse at 3 mg/kg, iv administered as 5% v/v NMP, 5% v/v solutol HS-15 and 70% v/v normal saline formulation and measured after 24 hrs; assay type: ADME, organism-based; conditions: in vivo
[8] = biological target: T1, Cereblon/Casein kinase I alpha (Homo sapiens, UniProt P48729+Q96SW2); experiment: PROTAC activity at CRBN/HiBiT-tagged CK1alpha in HEK293 cells transfected with LgBiT expression vector assessed as induction of CK1alpha degradation by measuring maximal efficacy at 10 uM measured after 24 hrs by luminescence based GloMax Discover assay relative to control; assay type: cell-based
Target sequence in this assay (P48729 2-337 limits assumed): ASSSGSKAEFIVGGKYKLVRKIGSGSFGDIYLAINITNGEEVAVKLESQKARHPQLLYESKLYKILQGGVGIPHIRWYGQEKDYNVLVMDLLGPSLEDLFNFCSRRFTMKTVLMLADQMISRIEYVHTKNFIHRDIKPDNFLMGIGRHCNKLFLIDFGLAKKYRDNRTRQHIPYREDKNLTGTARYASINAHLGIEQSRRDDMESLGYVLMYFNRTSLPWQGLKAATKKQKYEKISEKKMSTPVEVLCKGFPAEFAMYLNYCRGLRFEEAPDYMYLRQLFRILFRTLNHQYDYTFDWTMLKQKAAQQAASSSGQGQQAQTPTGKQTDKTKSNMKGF
Target sequence in this assay (Q96SW2 whole entry partner): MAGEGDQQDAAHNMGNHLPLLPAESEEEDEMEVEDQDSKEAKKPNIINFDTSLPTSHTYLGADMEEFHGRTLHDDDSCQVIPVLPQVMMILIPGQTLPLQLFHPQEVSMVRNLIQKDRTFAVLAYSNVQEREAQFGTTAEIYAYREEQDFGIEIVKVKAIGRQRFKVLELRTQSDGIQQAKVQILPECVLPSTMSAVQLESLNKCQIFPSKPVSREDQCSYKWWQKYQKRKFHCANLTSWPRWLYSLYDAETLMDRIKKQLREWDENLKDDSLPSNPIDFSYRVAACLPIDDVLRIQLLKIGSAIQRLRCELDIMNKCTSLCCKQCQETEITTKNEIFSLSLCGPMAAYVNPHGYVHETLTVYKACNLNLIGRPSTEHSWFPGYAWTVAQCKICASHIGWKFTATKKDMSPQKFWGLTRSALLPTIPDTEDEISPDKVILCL

[9] = biological target: T1, Cereblon/Casein kinase I alpha; experiment: PROTAC activity at CRBN/HiBiT-tagged CK1alpha in HEK293 cells transfected with LgBiT expression vector assessed as induction of CK1alpha degradation measured after 24 hrs by luminescence based GloMax Discover assay; assay type: cell-based
Target sequence in this assay (P48729 whole entry): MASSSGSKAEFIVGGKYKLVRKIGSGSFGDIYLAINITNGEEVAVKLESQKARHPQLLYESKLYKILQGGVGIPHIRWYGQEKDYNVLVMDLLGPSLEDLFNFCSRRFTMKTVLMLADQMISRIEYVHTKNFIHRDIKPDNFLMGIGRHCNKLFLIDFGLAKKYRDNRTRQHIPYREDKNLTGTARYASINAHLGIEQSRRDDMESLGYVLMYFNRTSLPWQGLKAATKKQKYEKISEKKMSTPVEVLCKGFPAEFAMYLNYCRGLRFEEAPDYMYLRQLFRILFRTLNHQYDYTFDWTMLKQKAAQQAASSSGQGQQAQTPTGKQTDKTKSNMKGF
Target sequence in this assay (Q96SW2 whole entry): as the sequence (Q96SW2 whole entry partner) above

MOLM-13 [10] = experiment: Antiproliferative activity against human MOLM-13 cells incubated for 72 hrs by Cell-Titer Glo assay; assay type: functional, cell-based; conditions: MOLM-13, 72 h
[11] = Apparent permeability across apical to basolateral side in MDCK-II cells at 10 micromol/L incubated for 1 hrs by UPLC/MS analysis; assay type: ADME, cell-based, Canis lupus familiaris; conditions: dog, mdck-ii, 1 h, 10 µM, dose 10 µmol/L
[12] = Apparent permeability across basolateral to apical side in MDCK-II cells at 10 micromol/L incubated for 1 hrs by UPLC/MS analysis; assay type: ADME, cell-based, Canis lupus familiaris; conditions: dog, mdck-ii, 1 h, 10 µM, dose 10 µmol/L
[13] = Cmax in female CD-1 mouse at 10 mg/kg, po administered as 5% v/v NMP, 5% v/v solutol HS-15 and 70% v/v normal saline formulation and measured after 24 hrs; assay type: ADME, organism-based; conditions: in vivo
[14] = Metabolic stability in mouse liver microsomes assessed as half-life at 10 uM measured upto 4 hrs in presence of NADPH by UPLC-MS/MS analysis; assay type: ADME, Microsome; conditions: microsomes, 4 h, 10 µM
[15] = Metabolic stability in human hepatocytes assessed as half-life; assay type: ADME, cell-based, Hepatocyte
[16] = Oral bioavailability in female CD-1 mouse at 10 mg/kg administered as 5% v/v NMP, 5% v/v solutol HS-15 and 70% v/v normal saline formulation and measured after 24 hrs; assay type: ADME, organism-based; conditions: in vivo
[17] = biological target: T1, Cereblon/Casein kinase I alpha; experiment: PROTAC activity at CRBN/HiBiT-tagged CK1alpha in HEK293 cells transfected with LgBiT expression vector assessed as induction of CK1alpha degradation by measuring degradation rate at 10 uM measured after 24 hrs by luminescence based GloMax Discover assay; assay type: cell-based
Target sequence in this assay (P48729 2-337 limits assumed): as the sequence (P48729 2-337 limits assumed) above
Target sequence in this assay (Q96SW2 whole entry partner): as the sequence (Q96SW2 whole entry partner) above

[18] = Stability in human plasma assessed as half-life at 10 uM measured upto 48 hrs by UPLC-MS/MS analysis; assay type: ADME, cell-free
[19] = Metabolic stability in CD1 mouse hepatocytes assessed as half-life; assay type: ADME, cell-based, Hepatocyte; conditions: mouse
[20] = Cmax in female CD-1 mouse at 10 mg/kg, po administered as 5% v/v NMP, 5% v/v solutol HS-15, 20% PEG 400 and 70% v/v normal saline formulation and measured after 24 hrs; assay type: ADME, organism-based; conditions: in vivo
[21] = AUClast in female CD-1 mouse at 3 mg/kg, iv administered as 5% v/v NMP, 5% v/v solutol HS-15, 20% PEG 400 and 70% v/v normal saline formulation and measured after 24 hrs; assay type: ADME, organism-based; conditions: in vivo
[22] = Cmax in female CD-1 mouse at 3 mg/kg, iv administered as 5% v/v NMP, 5% v/v solutol HS-15, 20% PEG 400 and 70% v/v normal saline formulation and measured after 24 hrs; assay type: ADME, organism-based; conditions: in vivo
[23] = Oral bioavailability in female CD-1 mouse at 10 mg/kg administered as 5% v/v NMP, 5% v/v solutol HS-15, 20% PEG 400 and 70% v/v normal saline formulation and measured after 24 hrs; assay type: ADME, organism-based; conditions: in vivo
[24] = AUClast in female CD-1 mouse at 10 mg/kg, po administered as 5% v/v NMP, 5% v/v solutol HS-15, 20% PEG 400 and 70% v/v normal saline formulation and measured after 24 hrs; assay type: ADME, organism-based; conditions: in vivo
[25] = Volume of distribution at steady state in female CD-1 mouse at 3 mg/kg, iv administered as 5% v/v NMP, 5% v/v solutol HS-15, 20% PEG 400 and 70% v/v normal saline formulation and measured after 24 hrs; assay type: ADME, organism-based; conditions: in vivo
MOLM-13 [26] = experiment: Downregulation of CK1alpha protein level in human MOLM-13 cells at 1 uM measured after 4 hrs by TMT-proteomic analysis; assay type: functional, cell-based
[27] = Half-life in female CD-1 mouse at 3 mg/kg, iv administered as 5% v/v NMP, 5% v/v solutol HS-15, 20% PEG 400 and 70% v/v normal saline formulation and measured after 24 hrs; assay type: ADME, organism-based; conditions: in vivo
[28] = Metabolic stability in pooled human liver microsomes assessed as half-life at 10 uM measured upto 4 hrs in presence of NADPH by UPLC-MS/MS analysis; assay type: ADME, Microsome
HEK293 = experiment: Cytotoxicity against HEK293 cells expressing HiBiT-tagged CK1alpha at 0.0001 to 100 uM measured over 24 hrs by Cell-Titer Glo assay; assay type: toxicity, cell-based; conditions: human, hek293, 24 h, dose 0.0001-100 µM
[29] = Tmax in female CD-1 mouse at 10 mg/kg, po administered as 5% v/v NMP, 5% v/v solutol HS-15, 20% PEG 400 and 70% v/v normal saline formulation and measured after 24 hrs; assay type: ADME, organism-based; conditions: in vivo
[30] = Clearance in female CD-1 mouse assessed as hepatic blood flow at 3 mg/kg, iv administered as 5% v/v NMP, 5% v/v solutol HS-15, 20% PEG 400 and 70% v/v normal saline formulation and measured after 24 hrs; assay type: ADME, organism-based; conditions: in vivo
[31] = biological target: Protein cereblon/Eukaryotic peptide chain release factor GTP-binding subunit ERF3A (Homo sapiens) (UniProt Q96SW2+P15170); experiment: PROTAC activity at CRBN (unknown origin)/human HiBiT-tagged GSPT1 transfected in HEK293 cells assessed as induction of GSPT1 degradation measured after 24 hrs by Nano-Glo reagent based luminescence analysis; assay type: cell-based
Protein cereblon/Eukaryotic peptide chain release factor GTP-binding subunit ERF3A (Homo sapiens), sequence (P15170 whole entry, looked up): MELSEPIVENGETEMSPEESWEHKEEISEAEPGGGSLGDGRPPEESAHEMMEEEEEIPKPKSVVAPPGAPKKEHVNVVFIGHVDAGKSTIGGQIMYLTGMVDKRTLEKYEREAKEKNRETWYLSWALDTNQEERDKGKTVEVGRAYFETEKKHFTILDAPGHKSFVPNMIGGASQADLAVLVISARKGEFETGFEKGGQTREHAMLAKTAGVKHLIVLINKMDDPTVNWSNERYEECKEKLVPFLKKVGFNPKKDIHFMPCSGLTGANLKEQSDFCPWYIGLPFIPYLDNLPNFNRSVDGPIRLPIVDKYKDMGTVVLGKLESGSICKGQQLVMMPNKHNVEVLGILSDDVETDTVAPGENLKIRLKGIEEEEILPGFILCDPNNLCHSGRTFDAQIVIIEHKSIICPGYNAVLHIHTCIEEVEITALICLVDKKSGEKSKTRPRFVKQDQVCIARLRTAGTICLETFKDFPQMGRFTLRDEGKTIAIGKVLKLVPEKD
Protein cereblon/Eukaryotic peptide chain release factor GTP-binding subunit ERF3A (Homo sapiens), sequence (Q96SW2 whole entry, looked up): as the sequence (Q96SW2 whole entry partner) above

Jurkat = experiment: Cytotoxicity against human Jurkat cells expressing HiBiT-tagged IKZF1 at 0.0001 to 100 uM measured over 24 hrs by Cell-Titer Glo assay; assay type: toxicity, cell-based; conditions: dose 0.0001-100 µM
[32] = biological target: T1, Cereblon/Casein kinase I alpha; experiment: (§1) Binding affinity to Halo-tagged CRBN (unknown origin)/HiBiT-tagged CK1alpha in HEK293 cells transfected with LgBiT expression vector assessed as ternary complex formation preincubated with MG132 for 30 mins followed by compound addition and measured after 2 hrs by NanoBRET assay; assay type: cell-based
Target sequence in this assay (P48729 whole entry): as the sequence (P48729 whole entry) above
Target sequence in this assay (Q96SW2 whole entry): as the sequence (Q96SW2 whole entry partner) above

Cereblon/Ikaros = Cereblon/Ikaros (Homo sapiens, UniProt Q96SW2+Q13422); experiment: PROTAC activity at CRBN/HiBiT-tagged IKZF1 in human Jurkat cells transfected with LgBiT expression vector assessed as induction of IKZF1 degradation measured after 24 hrs by luminescence based GloMax Discover assay; assay type: cell-based
[33] = biological target: T1, Cereblon/Casein kinase I alpha; experiment: as §1, with “formation by measuring fold increase in NanoBRET signal” for “formation”, “assay relative to control” for “assay”; assay type: cell-based
Target sequence in this assay (P48729 2-337 limits assumed): as the sequence (P48729 2-337 limits assumed) above
Target sequence in this assay (Q96SW2 whole entry partner): as the sequence (Q96SW2 whole entry partner) above

SMILES: O=C1CCC(N2Cc3cc(Nc4noc5cc(F)ccc45)ccc3C2=O)C(=O)N1 (stereo not given)
- AUClast [1]: 911 ng·h/mL
- AUClast [2]: 306 ng·h/mL
- Vdss [3]: 1.34 L/kg
- Cmax [4]: 4240 ng/mL
- t1/2 [5]: 17 h
- solubility [6]: 26 µM (≈ 10.3 µg/mL)
- t1/2 [7]: 1.98 h
- Emax [8]: 95%
- DC50 [9]: 4 nM
- IC50 (MOLM-13 [10]): 21 nM
- Papp [11]: 197 nm/s
- Papp [12]: 104 nm/s
- Cmax [13]: 330 ng/mL
- t1/2 [14]: > 10 h
- t1/2 [15]: > 216 min
- F [16]: 10%
- Activity [17]: 3.5 h⁻¹

SMILES: O=C1CCC(N2Cc3cc(Nc4noc5ccccc45)ccc3C2=O)C(=O)N1 (stereo not given)
- t1/2 [18]: 8.5 h
- t1/2 [19]: > 216 min
- Cmax [20]: 207 ng/mL
- AUClast [21]: 832 ng·h/mL
- Cmax [22]: 2700 ng/mL
- t1/2 [5]: 25 h
- solubility at 18 h ([6]; pH 7.4): 36 µM (≈ 13.5 µg/mL)
- F [23]: 9.5%
- AUClast [24]: 264 ng·h/mL
- Vdss [25]: 1.11 L/kg
- Emax [8]: 95%
- DC50 [9]: 1 nM
- IC50 (MOLM-13 [10]): 13 nM
- Papp [11]: 245 nm/s
- Papp [12]: 262 nm/s
- Activity (MOLM-13 [26]): Active
- t1/2 [14]: > 10 h
- t1/2 [15]: > 216 min
- t1/2 [27]: 21 min
- Activity [17]: 3.5 h⁻¹
- t1/2 [28]: > 10 h

SMILES: O=C1CCC(N2Cc3cc(NC(=O)c4cccc(F)c4)ccc3C2=O)C(=O)N1 (stereo not given)
- t1/2 [18]: 10.6 h
- Activity (HEK293): Non-Toxic
- Cmax [20]: 1617 ng/mL
- AUClast [21]: 2049 ng·h/mL
- Cmax [22]: 6450 ng/mL
- t1/2 [5]: 10 h
- solubility [6]: 19 µM (≈ 7.25 µg/mL)
- Tmax [29]: 15 min
- F [23]: 41%
- AUClast [24]: 2804 ng·h/mL
- Vdss [25]: 0.88 L/kg
- QH [30]: 27%
- Emax [8]: 88%
- DC50 [9]: 4 nM
- IC50 (MOLM-13 [10]): 28 nM
- Papp [11]: 6 nm/s
- Papp [12]: 18 nm/s
- Activity (MOLM-13 [26]): Active
- t1/2 [14]: > 10 h
- t1/2 [27]: 71.4 min
- Activity [17]: 1.3 h⁻¹
- Activity [31]: inactive
- Activity (Jurkat): Non-Toxic
- EC50 [32]: 119 nM
- Activity (Cereblon/Ikaros): inactive
- fold change (FC) [33]: 7.4
- t1/2 [28]: > 10 h
